Test results: ChEMBL document CHEMBL1138670, “Prospects for inhibitors of protein tyrosine phosphatase 1B as antidiabetic drugs” (J Med Chem, 2004)

Experiments:
[1] = molecular target: T1, Tyrosine-protein phosphatase non-receptor type 1 (Homo sapiens, UniProt P18031); experiment: Inhibitory activity against Protein-tyrosine phosphatase 1B at pH 5.5
T1 sequence (P18031 whole entry): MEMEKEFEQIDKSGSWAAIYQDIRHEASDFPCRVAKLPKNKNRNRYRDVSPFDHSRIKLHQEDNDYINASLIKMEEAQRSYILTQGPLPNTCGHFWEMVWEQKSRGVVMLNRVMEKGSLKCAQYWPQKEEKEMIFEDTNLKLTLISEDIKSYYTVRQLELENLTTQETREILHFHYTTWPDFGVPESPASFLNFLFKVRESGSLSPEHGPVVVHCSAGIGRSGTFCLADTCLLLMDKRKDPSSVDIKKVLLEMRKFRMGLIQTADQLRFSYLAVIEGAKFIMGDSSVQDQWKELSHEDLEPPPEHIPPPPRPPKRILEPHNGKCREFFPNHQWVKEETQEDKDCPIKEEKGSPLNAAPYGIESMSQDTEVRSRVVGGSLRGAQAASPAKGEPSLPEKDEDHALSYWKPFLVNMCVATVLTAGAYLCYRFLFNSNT

[2] = Bioavailability; type: ADME, organism-based; conditions: eutheria, in vivo; read-out: Fez
[3] = molecular target: T1, Tyrosine-protein phosphatase non-receptor type 1; experiment: Inhibitory activity against Protein-tyrosine phosphatase 1B
[4] = molecular target: T2, Tyrosine-protein phosphatase non-receptor type 1 (Homo sapiens) (UniProt P18031); experiment: Inhibitory concentration for Protein-tyrosine phosphatase 1B
T2 sequence (whole entry): T1 sequence (P18031 whole entry)

**Q.** Which Ki [1] does the source give for `O=C(O)C(=O)Nc1sc2c(c1C(=O)O)CCN[C@H]2CNC(=O)c1cc2cc(F)ccc2[nH]1` here?
**A.** The Ki was 0.018 µM.

**Q.** With `O=C(c1ccccc1)C(Cc1ccc(C(F)(F)P(=O)(O)O)cc1)c1ccccc1` (centres undefined) as the molecule, how does the bioavailability [2] read?
**A.** Its bioavailability is 13%.

**Q.** With `CCc1cc(CC(NC(C)=O)C(=O)NCCCCC(=O)N[C@@H](CCSC)C(=O)O)ccc1N(C(=O)C(=O)O)c1ccccc1C(=O)O` (some centres undefined) as the molecule, how does the Ki [3] read?
**A.** The Ki was 0.077 µM.

**Q.** With `CC(C)c1ccc(N2N=C3CSCC=C3C(C#N)=C2N)cc1` as the molecule, how does the Concentration [4] read?
**A.** Its Concentration is 5.6 µM.
